19 molecules from PMC12022909, “A Multicomponent Reaction-Based Platform Opens New Avenues in Aryl Hydrocarbon Receptor Modulation” (ACS Central Science, 2025) can be followed below.

The target in data set [1] is T1, aryl hydrocarbon receptor (AhR) (Homo sapiens, UniProt P35869).
T1 construct: AhR-dependent reporter gene activity was determined in human HepG2 cells stably transfected with an XRE; endogenous in cells; host or cells: XRE-HepG2 (human HepG2 hepatoma cells stably carrying an XRE-luciferase plasmid)
T1 sequence (P35869 11-848): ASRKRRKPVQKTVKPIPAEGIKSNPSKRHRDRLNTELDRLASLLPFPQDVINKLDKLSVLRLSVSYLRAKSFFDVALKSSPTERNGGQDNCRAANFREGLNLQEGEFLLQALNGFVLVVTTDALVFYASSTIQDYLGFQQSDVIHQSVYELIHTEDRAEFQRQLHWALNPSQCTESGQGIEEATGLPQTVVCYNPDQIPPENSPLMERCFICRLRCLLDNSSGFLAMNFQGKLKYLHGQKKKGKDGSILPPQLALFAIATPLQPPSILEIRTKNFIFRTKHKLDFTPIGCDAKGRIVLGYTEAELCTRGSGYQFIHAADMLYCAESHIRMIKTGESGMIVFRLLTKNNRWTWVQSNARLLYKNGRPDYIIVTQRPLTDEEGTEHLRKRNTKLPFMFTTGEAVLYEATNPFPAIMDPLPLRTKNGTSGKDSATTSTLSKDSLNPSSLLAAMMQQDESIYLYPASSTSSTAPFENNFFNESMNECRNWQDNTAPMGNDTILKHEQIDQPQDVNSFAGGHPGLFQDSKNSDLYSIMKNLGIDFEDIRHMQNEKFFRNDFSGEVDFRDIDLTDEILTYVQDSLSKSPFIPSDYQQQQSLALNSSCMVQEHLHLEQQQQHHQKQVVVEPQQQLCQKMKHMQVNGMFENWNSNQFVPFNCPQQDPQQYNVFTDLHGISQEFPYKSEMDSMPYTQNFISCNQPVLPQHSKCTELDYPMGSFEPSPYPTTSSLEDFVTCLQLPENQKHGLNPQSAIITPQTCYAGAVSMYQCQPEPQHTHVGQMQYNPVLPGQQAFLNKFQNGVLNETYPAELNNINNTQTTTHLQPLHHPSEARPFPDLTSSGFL
Kind of data set: AhR/XRE-dependent luciferase reporter gene assay in XRE-HepG2 cells. Format: cell-based. The note with it: for EC50: 8 h; for AhR-dependent reporter gene activity on co-treatment with BaP: preliminary data. (In general: A reporter such as luciferase makes a cellular process visible.)
Protocol: (f) AhR/XRE-dependent reporter gene activity results (EC50/μM).
Data are shown as mean ± SEM.
The human XRE -HepG2 reporter cell -line was a kind gift of K. Gradin and L. Poellinger (Karolinska Institute, Stockholm,
antibiotic/antimycotic solution, and 0.8 mg/ml G418. All cells were cultivated at 37 °C in a humidified atmosphere containing 5% CO 2.
AhR-dependent reporter gene activity was determined in human HepG2 cells stably transfected with an XRE -harboring luciferase plasmid (XRE-HepG2 cells). […] Luciferase activity was normalized to protein content.

Another data set deals with HaCaT cells. Kind of data set: UVA phototoxicity, caspase 3 activity in HaCaT cells. The class given is cell-based, human. The note with it: HaCaT, 1 h, UVA 5 J/cm2. As to the method:
Irradiation with UVA and caspase 3 activity measurement […]
culture media was exchanged with PBS and the cells were sham or UVA (5 J/cm2) irradiated using the BS-02 irradiation chamber (Opsytec Dr. Gröbel, Ettlingen Germany). Media was added to the cells and after 4 h incubation, caspase 3 activity was measured as described previously.[33] Protein quantification was done with the Bio-Rad DC protein assay kit (Bio-Rad Laboratories, Hercules, CA) according to the manufacturer protocol.
We compared the phototoxic potential of five of our test compounds (8, 10, 5b, 5h, 4b) as well as the FDA-approved AhR activator […]
induced caspase activity at a concentration of 100 nM (Figure S36A). At a 10-fold higher concentration (1 µM) two of the test compounds […]
Figure S36. […] For statistical analysis a two-way ANOVA (Tukey post-hoc) was performed and data are shown as mean ± SEM. (*, p ≤ 0.05). […]

Data set [2] is described as follows: Solubility in the growing media during cytotoxicity testing. The class given is physicochemical. The note with it: concentration of 100 µM. As to the method:
A phosphatidylserine exposure was used to determine cell viability. Cells were washed with PBS, pelleted, and then incubated with annexin binding buffer containing Annexin V-APC (Life Technologies) for 15 min in the dark. Then, samples were analyzed by flow cytometry using FACSCanto II and FACSDiva (BD Biosciences, Franklin Lakes, NJ, USA). Data represents the percentage of non - apoptotic cells (Ann -APC-).
The cytotoxicity of a selection of the synthesized compounds was assessed after 24 hours of treatment in two human cell lines, Jurkat and HEK293T, coming from either tumoral T-cell lymphocytes or non-tumoral embryonic kidney fibroblasts, respectively. […]
the pro-apoptotic activity was not significant below 10 µM for most compounds in both cell lines, except for 5i, 5k and 5l in both cell lines, as well as 9a in Jurkat and 5e HEK293T cells (Figure S35A-B).
Moreover, the cytotoxicity of compounds 4d, 5b, 5h, 8, 10, and 12d at a higher concentration (100 µM) was assessed in both cell lines, Jurkat and HEK293T. The cytotoxicity of compounds 5b, 5h, and 12d could not be properly tested as the compounds were not soluble […]
effects observed for compound 4d in Jurkat cells and compound 8 in HEK293T cells (Figure S35C).
Figure S35. A) Jurkat and B) HEK293T cells were treated with 1 and 10 µM doses of the corresponding compound for 24 hours. Indicated doses of fluorizoline were used as a positive control of cell death. C) Jurkat and HEK293T cells were treated with 100 µM of the corresponding compound for 24 hours. Viability was measured by flow cytometry, and it is expressed as the mean ± SEM (n = 3) of the percentage of non -apoptotic cells (Ann-APC-). * p < 0.05, ** p < 0.01 *** p < […]
(1 picture or pasted object on this page, not shown here)

Where [3] appears, read: XRE-HepG2 cells, unit as in the supplements, read-out: AhR/XRE-dependent luciferase activity EC50.
Where [4] appears, read: XRE-HepG2 hepatoma cells, luciferase activity, read-out: AhR/XRE-dependent reporter gene activity (EC50).

Like-named read-outs stand apart in the source and are kept apart here. Where only a bound is given, the exact number is not on record here.

As for `CC1(C)CC(=O)C(c2c3[nH]c4ccccc4c3cc3[nH]c4ccccc4c23)=C(O)C1` [4a], the EC50 in data set [1] (setting [3]) was determined as 2250 nM.
Regarding `O=C1OCC(O)=C1c1c2[nH]c3ccccc3c2cc2[nH]c3ccccc3c12` [4b], the “UVA radiation-induced caspase activity (phototoxicity)” value is given as “neither tapinarof nor our 6-ICZ compounds enhanced” in the data set with HaCaT cells (100 nM) and “did not show any signs of phototoxicity” in the data set with HaCaT cells (1 µM). In data set [1] (setting [3]), the EC50 was > 10000 nM. Moreover, in data set [1], the “AhR-dependent reporter gene activity on co-treatment with BaP” value was “synergistic effects”.
On to `O=c1oc2ccccc2c(O)c1-c1c2[nH]c3ccccc3c2cc2[nH]c3ccccc3c12` [4c], for which the EC50 in data set [1] (setting [3]) was determined as 4510 nM.
Take `Brc1ccc2[nH]cc(-c3c4[nH]c5ccccc5c4cc4[nH]c5ccccc5c34)c2c1` [5b]: the “UVA radiation-induced caspase activity (phototoxicity)” value with HaCaT cells (100 nM) is “neither tapinarof nor our 6-ICZ compounds enhanced”; in the data set on HaCaT cells (1 µM), “exhibited similar effects to FICZ”. The “solubility in the growing media” value in data set [2] was “not soluble”. In addition, the EC50 in data set [1] (setting [3]) worked out at 940 nM.
With `c1ccc2c(-c3c4[nH]c5ccccc5c4cc4[nH]c5ccccc5c34)c[nH]c2c1` [5c], the EC50 in data set [1] (setting [4]) was determined as 360 nM.
For `c1ccc(-c2[nH]c3ccccc3c2-c2c3[nH]c4ccccc4c3cc3[nH]c4ccccc4c23)cc1` [5f], the EC50 in data set [1] (setting [3]) worked out at 1170 nM.
With `OCc1[nH]c2ccccc2c1-c1c2[nH]c3ccccc3c2cc2[nH]c3ccccc3c12` [5g], in data set [1] (setting [3]), the EC50 came to 1820 nM.
With `Cc1cccc2[nH]cc(-c3c4[nH]c5ccccc5c4cc4[nH]c5ccccc5c34)c12` [5h], the “UVA radiation-induced caspase activity (phototoxicity)” value with HaCaT cells (100 nM) was “neither tapinarof nor our 6-ICZ compounds enhanced”. Moreover, the “solubility in the growing media” value in data set [2] is reported as “not soluble”. Moreover, the EC50 in data set [1] (setting [3]) is 570 nM.
For the molecule `Cc1cccc2c(-c3c4[nH]c5ccccc5c4cc4[nH]c5ccccc5c34)c[nH]c12` [5i], the EC50 in data set [1] (setting [3]) is 450 nM.
For `Cc1[nH]c2ccccc2c1-c1c2c3ccccc3n(C)c2cc2c3ccccc3n(C)c12` [5j], the EC50 in data set [1] (setting [3]) came out at 1200 nM. Further, the “reduction of activity compared to N,N′-H analog 5e” value in data set [1] (from reporter gene EC50 values) is listed as 2.3 fold.
Turning to `COc1ccc2[nH]c3c(-c4c(C)[nH]c5ccccc45)c4c(cc3c2c1)[nH]c1ccc(OC)cc14` [5l], the EC50 in data set [1] (setting [3]) was 630 nM.
Turning to `O=C(O)c1ccc2c(-c3c4[nH]c5ccccc5c4cc4[nH]c5ccccc5c34)c[nH]c2c1` [5m], in data set [1] (setting [3]), the EC50 was > 10000 nM.
For `CS(=O)(=O)Nc1ccc(-c2ccc3[nH]cc(-c4c5[nH]c6ccccc6c5cc5[nH]c6ccccc6c45)c3c2)cc1` [9a], the EC50 in data set [1] (setting [3]) was 100 nM.
Consider `Cc1ccc(C#Cc2ccc3[nH]cc(-c4c5[nH]c6ccccc6c5cc5[nH]c6ccccc6c45)c3c2)cc1` [9b], for which the EC50 in data set [1] (setting [3]) was > 10000 nM. Also, the “AhR-dependent reporter gene activity on co-treatment with BaP” value in data set [1] was “synergistic effects”.
Take `CCCCCNC(=O)c1ccc2c(-c3c4[nH]c5ccccc5c4cc4[nH]c5ccccc5c34)c[nH]c2c1` [12a]: the EC50 in data set [1] (setting [4]) was 400 nM.
With `O=C(NCCCCCCCCCCNC(=O)c1ccc2c(-c3c4[nH]c5ccccc5c4cc4[nH]c5ccccc5c34)c[nH]c2c1)c1ccc2c(-c3c4[nH]c5ccccc5c4cc4[nH]c5ccccc5c34)c[nH]c2c1` [12c], the EC50 in data set [1] (setting [3]) was found to be 6060 nM.
In the case of `O=C(NCCCOCCOCCOCCCNC(=O)c1ccc2c(-c3c4[nH]c5ccccc5c4cc4[nH]c5ccccc5c34)c[nH]c2c1)c1ccc2c(-c3c4[nH]c5ccccc5c4cc4[nH]c5ccccc5c34)c[nH]c2c1` [12d], in data set [2], the “solubility in the growing media” value was “not soluble”. Besides, the EC50 in data set [1] (setting [3]) was > 10000 nM.
With `Clc1cc2c(cc1Cl)Oc1cc(Cl)c(Cl)cc1O2` [TCDD, 2,3,7,8-tetrachlorodibenzodioxin, reference compound], the EC50 in data set [1] (setting [3]) stood at 3 nM.
Take `CC(C)c1c(O)cc(/C=C/c2ccccc2)cc1O` [Tapinarof, tapinarof, reference compound]: the figures for the “UVA radiation-induced caspase activity (phototoxicity)” value in the data set with HaCaT cells (100 nM) and in the data set with HaCaT cells (1 µM) were “neither tapinarof nor our 6-ICZ compounds enhanced” and “did not show any signs of phototoxicity”, respectively.
